According to PMC7862169, “Restoration of renal TIMP3 levels via genetics and pharmacological approach prevents experimental diabetic nephropathy” (Clinical and Translational Medicine, 2021):

Tests used:
[1] = cited from earlier work; for Kidney selectivity of carrier peptide: even with conjugated drugs
Text: Many proteins and peptides take on an increasingly important role as therapeutics in areas including diabetes diseases mainly due to their potential to bind to targets in a selective manner, thus reducing undesired off‐target effects. ^17 Drug‐targeting delivery to the kidney is an attractive method to increase the pharmaceutical compounds efficacy, ^18 however it represents a promising but underdeveloped area. Recently, galectin‐3 targeted G3C12 peptide and ε‐polylysine derived, synthetic (KKEEE)3K peptide have been identified as novel highly kidney‐specific carriers with exceptional kidney s ...

human recombinant MMP2 = biological target: T1, human recombinant MMP2 (Homo sapiens, UniProt P08253); experiment: MMP2 colorimetric Inhibitor Screening Assay kit; assay type: biochemical; details: 1 μM peptide, 0.9 U enzyme, 37°C 60 minutes before substrate, read at 412 nm, n = 3; Figures 5A, S4E
T1 construct: purchased Abcam
T1 sequence (P08253 110-660): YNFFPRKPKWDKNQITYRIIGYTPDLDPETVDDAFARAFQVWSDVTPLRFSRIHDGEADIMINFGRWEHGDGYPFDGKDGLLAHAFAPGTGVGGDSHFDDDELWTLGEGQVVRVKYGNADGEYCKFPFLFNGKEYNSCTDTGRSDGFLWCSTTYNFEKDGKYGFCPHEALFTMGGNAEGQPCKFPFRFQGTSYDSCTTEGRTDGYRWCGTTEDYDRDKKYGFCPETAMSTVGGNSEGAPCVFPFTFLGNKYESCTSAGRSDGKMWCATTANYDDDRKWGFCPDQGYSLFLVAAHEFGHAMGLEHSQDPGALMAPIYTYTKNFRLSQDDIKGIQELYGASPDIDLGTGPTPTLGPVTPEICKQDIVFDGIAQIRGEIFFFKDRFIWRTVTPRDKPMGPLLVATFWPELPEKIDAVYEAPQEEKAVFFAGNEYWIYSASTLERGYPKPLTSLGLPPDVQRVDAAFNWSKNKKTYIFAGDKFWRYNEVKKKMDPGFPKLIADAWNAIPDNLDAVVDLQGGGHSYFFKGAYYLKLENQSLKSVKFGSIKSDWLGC
Description: (§1) The MMP2/9 activities were evaluated using MMP2/MMP9 colorimetric Inhibitor Screening Assay kits (Abcam) under the manufacturer's instruction. In brief, 0.9 U of human recombinant MMP2 or MMP9 was mixed with 1 μM G3C12, G3C12‐NTIMP3, G3C12‐T2GNTIMP3 peptides, or 1.3 μM NNGH inhibitor as […]. The mixture was incubated at 37°C for 60 minutes then substrate was added. The plate was read at 412 nm by infinite F50 microplate reader (TECAN). Continuous recording was made at 1 minute interval for 20 minutes. The experiment was performed in triplicate.

human recombinant MMP9 = biological target: T2, human recombinant MMP9 (Homo sapiens, UniProt P14780); experiment: MMP9 colorimetric Inhibitor Screening Assay kit; assay type: biochemical; details: 1 μM peptide, 0.9 U enzyme, 37°C 60 minutes before substrate, read at 412 nm, n = 3; Figures 5A, S4E
T2 construct: purchased Abcam
T2 sequence (P14780 94-707): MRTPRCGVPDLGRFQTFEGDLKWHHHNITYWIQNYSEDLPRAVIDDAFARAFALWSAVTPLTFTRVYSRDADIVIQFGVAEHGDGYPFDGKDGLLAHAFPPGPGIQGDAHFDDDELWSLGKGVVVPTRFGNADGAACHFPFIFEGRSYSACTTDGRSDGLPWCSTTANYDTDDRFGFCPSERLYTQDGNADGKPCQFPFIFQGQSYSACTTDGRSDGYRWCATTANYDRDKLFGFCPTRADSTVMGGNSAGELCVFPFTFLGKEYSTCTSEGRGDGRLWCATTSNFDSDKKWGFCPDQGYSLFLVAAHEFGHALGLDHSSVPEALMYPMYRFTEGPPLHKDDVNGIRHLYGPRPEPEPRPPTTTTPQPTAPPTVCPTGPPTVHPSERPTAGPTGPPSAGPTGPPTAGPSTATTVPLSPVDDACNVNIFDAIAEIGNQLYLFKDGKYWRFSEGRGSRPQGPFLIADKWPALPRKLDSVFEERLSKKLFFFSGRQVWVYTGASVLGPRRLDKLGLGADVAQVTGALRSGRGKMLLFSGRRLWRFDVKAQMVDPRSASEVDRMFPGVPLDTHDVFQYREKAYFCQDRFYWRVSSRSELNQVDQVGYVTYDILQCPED
Description: as §1

human recombinant ADAM17 = biological target: T3, human recombinant ADAM17 (Homo sapiens, UniProt P78536); experiment: ADAM17 activity, SensoLyte 520 TACE Activity Assay Kit; assay type: biochemical; details: 1 μM peptide, 1 μM enzyme, QXL520/5-FAM FRET substrate, 60 minutes, n = 3; Figures 5A, S4E
T3 construct: purchased R&D Systems
T3 sequence (P78536 215-824): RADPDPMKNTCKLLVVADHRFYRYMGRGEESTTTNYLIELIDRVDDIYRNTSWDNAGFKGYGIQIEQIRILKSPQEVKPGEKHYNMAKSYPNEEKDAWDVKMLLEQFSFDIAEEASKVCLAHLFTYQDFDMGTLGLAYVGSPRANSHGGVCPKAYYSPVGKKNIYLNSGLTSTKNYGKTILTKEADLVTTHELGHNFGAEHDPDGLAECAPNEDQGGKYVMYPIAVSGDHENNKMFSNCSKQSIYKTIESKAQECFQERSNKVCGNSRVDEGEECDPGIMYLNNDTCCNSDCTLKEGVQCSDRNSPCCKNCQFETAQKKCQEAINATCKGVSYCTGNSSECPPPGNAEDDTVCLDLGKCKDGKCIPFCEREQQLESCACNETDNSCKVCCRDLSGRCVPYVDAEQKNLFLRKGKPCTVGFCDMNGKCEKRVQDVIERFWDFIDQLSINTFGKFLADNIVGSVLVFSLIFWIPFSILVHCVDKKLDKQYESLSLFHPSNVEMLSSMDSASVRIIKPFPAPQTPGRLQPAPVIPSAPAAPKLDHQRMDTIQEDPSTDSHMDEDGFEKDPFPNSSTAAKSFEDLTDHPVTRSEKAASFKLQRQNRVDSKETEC
Description: ADAM17 activity was determined using the SensoLyte 520 TACE Activity Assay Kit (AnaSpec). 1 μM human recombinant ADAM17 (R&D Systems) was incubated with the QXL520/ 5‐FAM FRET substrate, derived from a sequence surrounding the cleavage site of ADAM17. For inhibitor studies, 1μM TAPI‐0 or 1 μM G3C12, G3C12‐NTIMP3 and G3C12‐T2GNTIMP3 peptides were used. Active ADAM17 cleaves FRET substrate into two separate fragments resulting in an increase of 5‐FAM fluorescence which can be monitored at excitation/emission = 490 nm/520 nm measured in a fluorescence microplate reader (Beckman Coulter DTX 800) continuously every 5 minutes for 60 minutes (10).

diabetic DBA/2J mice = experiment: Peptide treatment of STZ diabetic mice: toxicity, behaviour, blood glucose; assay type: in vivo; details: STZ diabetic DBA/2J mice, 2 mg/kg iv, two injections per week for 8 weeks
Description: Diabetes was induced in 8‐week‐old mice by a multiple low‐dose streptozotocin (STZ) (Sigma) injection. STZ was given intraperitoneally (ip) at 50 mg/kg per day (freshly made in Na‐Citrate buffer, pH 4.5) for 5 consecutive days after a 4 hours fast. Control animals were treated with Na‐citrate buffer alone. Diabetes was defined as fed blood glucose level ≥250 mg/dL using a glucometer (OneTouch Ultra, LifeScan).
At 5 weeks after STZ or Na‐Citrate buffer administration, DBA/2J mice were randomly divided into the following four treatment groups: (1) vehicle buffer (PBS), (2) G3C12 free peptide, (3) G3C12‐NTIMP3 peptide, and (4) G3C12‐T2GNTIMP3 peptide. Peptides were dissolved in sterile PBS and administered intravenously (iv) by retro‐orbital injection (2 mg/kg body weight) in mice two times per week for 8 weeks.

Substance | Kidney accumulation of carrier peptide [1] | Toxic profile of carrier peptide [1] | Kidney selectivity of carrier peptide [1] | Inhibition of human MMP2 enzyme activity (percentage of residual activity) (human recombinant MMP2) | Inhibition of human MMP9 enzyme activity (percentage of residual activity) (human recombinant MMP9) | Inhibition of human ADAM17 enzyme activity (percentage of residual activity) (human recombinant ADAM17) | Changes in behavioral or nutritional status (diabetic DBA/2J mice) | Toxic effects (diabetic DBA/2J mice)
(KKEEE)3K [ε‐polylysine derived, synthetic kidney‐specific carrier peptide] | rapid kidney accumulation | no toxic profile | exceptional kidney selectivity |  |  |  |  | 
ANTPCGPYTHDCPVKR [G3C12] | rapid kidney accumulation | no toxic profile | exceptional kidney selectivity | did not show any inhibitory activity | did not show any inhibitory activity | did not show any inhibitory activity | Neither have any changes been observed | No toxic effects were observed
